Reference: patent US8889591B2, “Herbicidal compositions comprising 4-amino-3-chloro-5-fluoro-6-(4-chloro-2-fluoro-3-methoxyphenyl)pyridine-2-carboxylic acid or a derivative thereof and bromobutide, daimuron, oxaziclomefone or pyributicarb” (Dow Agrosciences LLC, priority 2012, dated 2014)

Experiments:
SCPJU = experiment: Postemergence foliar-applied greenhouse weed control, direct-seeded rice system; type: in vivo, Schoenoplectus juncoides (Roxb.) Palla; details: Oxaziclomefone 6.25 gai/ha alone
From the text: (§1) Seeds or nutlets of the desired test plant species were planted in a soil matrix prepared by mixing a loam or sandy loam soil (e.g., 28.6 percent silt, 18.8 percent clay, and 52.6 percent sand, with a pH of about 5.8 and an organic matter content of about 1.8 percent) and calcareous grit in an 80 to 20 ratio. The soil matrix was contained in plastic pots with a volume of 1 quart and a surface area of 83.6 square centimeters (cm^2). When required to ensure good germination and healthy plants, a fungicide treatment and/or other chemical or physical treatment was applied. The plants were grown for 8-22 days in a greenhouse with an approximate 14 h photoperiod which was maintained at about 29° C. during the day and 26° C. during the night. Nutrients (Peters Excel® 15-5-15 5-Ca 2-Mg and iron chelate) were applied in the irrigation solution as needed and water was added on a regular basis. Supplemental lighting was provided with overhead metal halide 1000-Watt lamps as necessary. The plants were employed for testing when they reached the first through fourth true leaf stage. […]
(§2) Treatment requirements were calculated based upon the rates being tested, the concentration of active ingredient or acid equivalent in the formulation, and a 12 mL application volume at a rate of 187 L/ha.
(§3) For treatments comprised of formulated compounds, measured amounts of compounds were placed individually in 25 mL glass vials and diluted in a volume of 1.25% (v/v) Agri-Dex® crop oil concentrated to obtain 12× stock solutions. […]
(§4) For treatments comprised of formulated and technical compounds, weighed amounts of the technical materials were placed individually in 25 mL glass vials and dissolved in a volume of 97:3 v/v acetone/DMSO to obtain 12× stock solutions, and measured amounts of the formulated compounds were placed individually in 25 mL glass vials and diluted in a volume of 1.5% (v/v) crop oil concentrate or water to obtain 12× stock solutions. […]

CYPIR = experiment: as above; type: in vivo, Cyperus iria L.; details: Oxaziclomefone 6.25 gai/ha alone
From the text: as §1, §2, §3, §4

CYPRO = experiment: In-water applied greenhouse weed control, transplanted paddy rice system; type: in vivo, Cyperus rotundus L.; details: in-water application
Procedure: Weed seeds or nutlets of the desired test plant species were planted in puddled soil (mud) prepared by mixing a shredded, non-sterilized mineral soil (50.5 percent silt, 25.5 percent clay, and 24 percent sand, with a pH of about 7.6 and an organic matter content of about 2.9 percent) and water at a 1:1 volumetric ratio. The prepared mud was dispensed in 365 mL aliquots into 16-ounce (oz.) non-perforated plastic pots with a surface area of 86.59 square centimeters (cm^2) leaving a headspace of 3 centimeters (cm) in each pot. Mud was allowed to dry overnight prior to planting or transplanting. Rice seeds were planted in Sun Gro MetroMix® 306 planting mixture, which typically has a pH of 6.0 to 6.8 and an organic matter content of about 30 percent, in plastic plug trays. Seedlings at the second or third leaf stage of growth were transplanted into 840 mL of mud contained in 32-oz. non-perforated plastic pots with a surface area of 86.59 cm^2 4 days prior to herbicide application. The paddy was created by filling the headspace of the pots with 2.5 to 3 cm of water. When required to ensure good germination and healthy plants, a fungicide treatment and/or other chemical or physical treatment was applied. The plants were grown for 4-22 days in a greenhouse with an approximate 14 h photoperiod which was maintained at about 29° C. during the day and 26° C. during the night. Nutrients were added as Osmocote® (19:6:12, N:P:K+ minor nutrients) at 2 g per 16-oz. pot and 4 g per 32-oz. pot. Water was added on a regular basis to maintain the paddy flood, and supplemental lighting was provided with overhead metal halide 1000-Watt lamps as necessary. The plants were employed for testing when they reached the first through fourth true leaf stage.
Treatments consisted of the acid or esters of 4-amino-3-chloro-5-fluoro-6-(4-chloro-2-fluoro-3-methoxy-phenyl)pyridine-2-carboxylic acid (compound A) each formulated as an SC and various herbicidal components alone and in combination. Forms of compound A were applied on an acid equivalent basis.
Other herbicidal components were applied on an active ingredient basis and included daimuron formulated as an EC, bromobutide (technical grade material), and oxaziclomefone (technical grade material).
(§5) Treatment requirements for each compound or herbicidal component were calculated based upon the rates being tested, the concentration of active ingredient or acid equivalent in the formulation, an application volume of 2 mL per component per pot, and an application area of 86.59 cm^2 per pot.
For formulated compounds, a measured amount was placed in an individual 100 or 200 mL glass vial and was dissolved in a volume of 1.25% (v/v) Agri-Dex® crop oil concentrate to obtain application solutions.
For technical grade compounds, a weighed amount was placed in an individual 100 to 200 mL glass vial and was dissolved in a volume of acetone to obtain concentrated stock solutions. […] The concentrated stock solutions obtained were diluted with an equivalent volume of an aqueous mixture containing 2.5% (v/v) crop oil concentrate so that the final application solutions contained 1.25% (v/v) crop oil concentrate.
Applications were made by injecting, with a pipetter, appropriate amounts of the application solutions, individually and sequentially, into the aqueous layer of the paddy. Control plants were treated in the same manner with the solvent blank. Applications were made so that all treated plant material received the same concentrations of acetone and crop oil concentrate.
(§6) The treated plants and control plants were placed in a greenhouse as described above and water was added as needed to maintain a paddy flood. After approximately 3 weeks the condition of the test plants as compared with that of the untreated plants was determined visually and scored on a scale of 0 to 100 percent where 0 corresponds to no injury or growth inhibition and 100 corresponds to complete kill. […]

ECHCG = experiment: as above; type: in vivo, Echinochloa crusgalli (L.) Beauv.; details: in-water application; Oxaziclomafone 20 gai/ha alone
Procedure: Weed seeds or nutlets of the desired test plant species were planted in puddled soil (mud) prepared by mixing a shredded, non-sterilized mineral soil (50.5 percent silt, 25.5 percent clay, and 24 percent sand, with a pH of about 7.6 and an organic matter content of about 2.9 percent) and water at a 1:1 volumetric ratio. The prepared mud was dispensed in 365 mL aliquots into 16-ounce (oz.) non-perforated plastic pots with a surface area of 86.59 square centimeters (cm^2) leaving a headspace of 3 centimeters (cm) in each pot. Mud was allowed to dry overnight prior to planting or transplanting. Rice seeds were planted in Sun Gro MetroMix® 306 planting mixture, which typically has a pH of 6.0 to 6.8 and an organic matter content of about 30 percent, in plastic plug trays. Seedlings at the second or third leaf stage of growth were transplanted into 840 mL of mud contained in 32-oz. non-perforated plastic pots with a surface area of 86.59 cm^2 4 days prior to herbicide application. The paddy was created by filling the headspace of the pots with 2.5 to 3 cm of water. […]
as §5
For formulated compounds, a measured amount was placed in an individual 100 or 200 mL glass vial and was dissolved in a volume of 1.25% (v/v) Agri-Dex® crop oil concentrate to obtain application solutions. […]
as §6

CC1=C(c2ccccc2)C(=O)N(C(C)(C)c2cc(Cl)cc(Cl)c2)CO1 [Oxaziclomefone, 3-[1-(3,5-dichlorophenyl)-1-methylethyl]-2,3-dihydro-6-methyl-5-phenyl-4H-1,3-oxazin-4-one]
Visual Weed Control (%) - 22 DAA SCPJU Obs (SCPJU): 0%
Visual Weed Control (%) - 22 DAA CYPIR Obs (CYPIR): 0%
Visual Weed Control (%) - 21 DAA CYPRO Obs (CYPRO; Oxaziclomafone 20 gai/ha alone (Table 6)): 0%
Visual Weed Control (%) - 21 DAA CYPRO Obs (CYPRO; Oxaziclomafone 20 gai/ha alone (Table 7)): 0%
Visual Weed Control (%) - 21 DAA CYPRO Obs (CYPRO; Oxaziclomafone 40 gai/ha alone (Table 7)): 0%
Visual Weed Control (%) - 21 DAA ECHCG Obs (ECHCG): 80%
